Assay results from PubChem BioAssay AID248 (DTP/NCI, 2004).
Inconclusive results and toxic doses are left out. Cut-off read from the data, not from the text of the source: active = T/C of 150% or more; inactive = T/C below 125%.

System: L1210 leukemia ip in BDF1 mice, survival T/C
Assay: NCI In Vivo Anticancer Drug Screen. Data for tumor model L1210 Leukemia (intraperitoneal) in B6D2F1 (BDF1) mice
Details: endpoint: mean survival time, higher = longer survival
Procedure, shortened: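 Value reflects the ratio of survival in compound-treated mice to survival in vehicle-treated controls, with both groups carrying the same transplanted tumor.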

[1] = dose: 100.0 mg/kg/injection, schedule: Q01DX009 (ip), vehicle: Klucel (hydroxypropylcellulose) (HPC)
[2] = dose: 200.0 mg/kg/injection, schedule: Q01DX009 (ip), vehicle: Klucel (hydroxypropylcellulose) (HPC)
[3] = dose: 400.0 mg/kg/injection, schedule: Q01DX009 (ip), vehicle: Klucel (hydroxypropylcellulose) (HPC)
[4] = dose: 100.0 mg/kg/injection, schedule: Q04DX003 (ip), vehicle: Klucel (hydroxypropylcellulose) (HPC)
[5] = dose: 100.0 mg/kg/injection, schedule: Q04DX002 (ip), vehicle: Klucel (hydroxypropylcellulose) (HPC)
[6] = dose: 200.0 mg/kg/injection, schedule: Q04DX002 (ip), vehicle: Klucel (hydroxypropylcellulose) (HPC)
[7] = dose: 100.0 mg/kg/injection, schedule: Q01DX001 (ip), vehicle: saline
[8] = dose: 200.0 mg/kg/injection, schedule: Q01DX001 (ip), vehicle: saline
[9] = dose: 400.0 mg/kg/injection, schedule: Q01DX001 (ip), vehicle: saline
[10] = dose: 100.0 mg/kg/injection, schedule: Q04DX003 (ip), vehicle: saline
[11] = dose: 200.0 mg/kg/injection, schedule: Q04DX003 (ip), vehicle: saline

Measured: T/C

O=C1c2ccc(Br)cc2-c2cc(Br)c([N+](=O)[O-])cc21
inactive: dose: 100.0 mg/kg/injection, schedule: Q01DX001 (ip), vehicle: carboxymethylcellulose (CMC) 98 % of control | dose: 200.0 mg/kg/injection, schedule: Q01DX001 (ip), vehicle: carboxymethylcellulose (CMC) 98 % of control | dose: 400.0 mg/kg/injection, schedule: Q01DX001 (ip), vehicle: carboxymethylcellulose (CMC) 113 % of control

CC(=O)C(C)(O)C(C)(C)C (stereo not given)
inactive: dose: 100.0 mg/kg/injection, schedule: Q01DX009 (ip), vehicle: saline 88 % of control | dose: 200.0 mg/kg/injection, schedule: Q01DX009 (ip), vehicle: saline 90 % of control | dose: 400.0 mg/kg/injection, schedule: Q01DX009 (ip), vehicle: saline 98 % of control

CC1=CC(=N\S(=O)(=O)c2ccccc2)/C2(Cl)CC(C)=C(C)CC2/C1=N/S(=O)(=O)c1ccccc1 (stereo not given)
inactive: dose: 50.0 mg/kg/injection, schedule: Q01DX001 (ip), vehicle: Klucel (hydroxypropylcellulose) (HPC) 98 % of control | dose: 100.0 mg/kg/injection, schedule: Q01DX001 (ip), vehicle: Klucel (hydroxypropylcellulose) (HPC) 95 % of control | dose: 200.0 mg/kg/injection, schedule: Q01DX001 (ip), vehicle: Klucel (hydroxypropylcellulose) (HPC) 103 % of control

CC12C=CC(=O)C=C1CCC1C2C(O)CC2(C)C1CCC2(O)C(=O)COC(=O)CCCc1ccc(N(CCCl)CCCl)cc1 (stereo not given)
inactive: dose: 12.5 mg/kg/injection, schedule: Q01DX009 (ip), vehicle: Klucel (hydroxypropylcellulose) (HPC) 116 % of control | dose: 12.5 mg/kg/injection, schedule: Q04DX003 (ip), vehicle: Klucel (hydroxypropylcellulose) (HPC) 97 % of control | dose: 15.0 mg/kg/injection, schedule: Q01DX009 (ip), vehicle: saline with Tween-80 107 % of control | dose: 25.0 mg/kg/injection, schedule: Q01DX009 (ip), vehicle: Klucel (hydroxypropylcellulose) (HPC) 122 % of control | dose: 25.0 mg/kg/injection, schedule: Q04DX003 (ip), vehicle: Klucel (hydroxypropylcellulose) (HPC) 110 % of control | dose: 30.0 mg/kg/injection, schedule: Q01DX009 (ip), vehicle: saline with Tween-80 114 % of control | dose: 50.0 mg/kg/injection, schedule: Q01DX009 (ip), vehicle: Klucel (hydroxypropylcellulose) (HPC) 124 % of control | dose: 50.0 mg/kg/injection, schedule: Q04DX003 (ip), vehicle: Klucel (hydroxypropylcellulose) (HPC) 109 % of control | dose: 60.0 mg/kg/injection, schedule: Q01DX009 (ip), vehicle: saline with Tween-80 108 % of control | dose: 75.0 mg/kg/injection, schedule: Q01DX001 (sc), vehicle: steriod suspending solution 103 % of control | dose: 150.0 mg/kg/injection, schedule: Q01DX001 (sc), vehicle: steriod suspending solution 111 % of control | dose: 300.0 mg/kg/injection, schedule: Q01DX001 (sc), vehicle: steriod suspending solution 108 % of control

CN(C)c1ccc(/C=N/NC(=O)c2ccccc2NC(=O)c2ccc(Cl)cc2)c(Cl)c1
inactive: [1] 95 % of control | [2] 90 % of control | [3] 90 % of control

O=C(N/N=C(\C=N\NC(=O)c1ccccc1)CC(O)C(O)CO)c1ccccc1 (stereo not given)
inactive: [4] 91 % of control | dose: 200.0 mg/kg/injection, schedule: Q04DX003 (ip), vehicle: Klucel (hydroxypropylcellulose) (HPC) 96 % of control | dose: 400.0 mg/kg/injection, schedule: Q04DX003 (ip), vehicle: Klucel (hydroxypropylcellulose) (HPC) 93 % of control

CC(=O)NC1C(OC(C)=O)OC(COC(C)=O)C(OC(C)=O)C1OC(C)=O (stereo not given)
inactive: dose: 100.0 mg/kg/injection, schedule: Q01DX001 (ip), vehicle: saline with Tween-80 100 % of control | dose: 200.0 mg/kg/injection, schedule: Q01DX001 (ip), vehicle: saline with Tween-80 103 % of control | dose: 400.0 mg/kg/injection, schedule: Q01DX001 (ip), vehicle: saline with Tween-80 103 % of control

CCC12C=CCN3CCC4(c5cc(C(c6ccc(OC)cc6)c6cc7ccccc7n6S(=O)(=O)c6ccccc6)c(OC)cc5N(C)C4C(O)(C(=O)OC)C1OC(C)=O)C32 (stereo not given)
inactive: dose: 50.0 mg/kg/injection, schedule: Q04DX002 (ip), vehicle: Klucel (hydroxypropylcellulose) (HPC) 98 % of control | [5] 98 % of control | [6] 102 % of control

COC1(OC)C2(Cl)C3C(=O)C4C5C(=O)C3C1(Cl)C5(Cl)C42Cl (stereo not given)
inactive: [7] 105 % of control | [8] 94 % of control | [9] 89 % of control

Cc1cccc(C)c1NC(=S)Nc1ccccc1
inactive: [5] 101 % of control | [6] 105 % of control | dose: 400.0 mg/kg/injection, schedule: Q04DX002 (ip), vehicle: Klucel (hydroxypropylcellulose) (HPC) 90 % of control

BrC#CC1CCCCC1
inactive: [10] 100 % of control | [11] 100 % of control

CN(C(=O)OCc1ccccc1)c1ccc(C(=O)O)cc1
inactive: [7] 97 % of control | [8] 94 % of control | [9] 97 % of control

O=C(Nc1ccc(Cl)c(Cl)c1)Oc1ccc(Cl)cc1C(=O)Nc1ccccc1
inactive: [1] 100 % of control | [2] 100 % of control | [3] 87 % of control

NC(N)=NC(N)=Nc1ccc(Cl)cc1
inactive: [4] 103 % of control

CN1c2ccccc2C=C(C(=O)c2ccccc2)C1c1ccccc1 (stereo not given)
inactive: dose: 50.0 mg/kg/injection, schedule: Q01DX001 (ip), vehicle: saline 100 % of control | [7] 102 % of control | [8] 97 % of control

Cc1ccc(Cl)cc1NC(=O)C(Br)C(Br)C(=O)O (stereo not given)
inactive: [1] 91 % of control | [2] 101 % of control

CC1(C)NC(=O)N(CCO)C1=O
inactive: dose: 50.0 mg/kg/injection, schedule: Q04DX003 (ip), vehicle: saline 111 % of control | [10] 111 % of control | [11] 100 % of control | dose: 400.0 mg/kg/injection, schedule: Q04DX003 (ip), vehicle: saline 101 % of control

COC(OC)c1[nH]c(=S)[nH]c(=O)c1Cc1ccccc1
inactive: dose: 25.0 mg/kg/injection, schedule: Q01DX009 (ip), vehicle: saline with Tween-80 98 % of control | dose: 50.0 mg/kg/injection, schedule: Q01DX009 (ip), vehicle: saline with Tween-80 96 % of control | dose: 100.0 mg/kg/injection, schedule: Q01DX009 (ip), vehicle: saline with Tween-80 98 % of control | dose: 100.0 mg/kg/injection, schedule: Q04DX003 (ip), vehicle: saline with Tween-80 102 % of control | dose: 200.0 mg/kg/injection, schedule: Q01DX009 (ip), vehicle: saline with Tween-80 86 % of control | dose: 200.0 mg/kg/injection, schedule: Q04DX003 (ip), vehicle: saline with Tween-80 96 % of control | dose: 400.0 mg/kg/injection, schedule: Q04DX003 (ip), vehicle: saline with Tween-80 94 % of control

CCC(C)C1NC(=O)C(NC(=O)c2c3nc4c(C(=O)NC5C(=O)NC(C(C)CC)C(=O)N6CCCC6C(=O)N(C)CC(=O)N(C)C(C(C)C)C(=O)OC5C)cc([N+](=O)[O-])c(C)c4oc-3c(C)c(=O)c2N)C(C)OC(=O)C(C(C)C)N(C)C(=O)CN(C)C(=O)C2CCCN2C1=O (stereo not given)
inactive: dose: 75.0 micrograms/kg/injection, schedule: Q01DX009 (ip), vehicle: saline + alcohol 111 % of control | dose: 100.0 micrograms/kg/injection, schedule: Q01DX009 (ip), vehicle: saline + alcohol 112 % of control | dose: 200.0 micrograms/kg/injection, schedule: Q01DX009 (ip), vehicle: saline + alcohol 122 % of control | dose: 300.0 micrograms/kg/injection, schedule: Q04DX003 (ip), vehicle: saline + alcohol 107 % of control | dose: 400.0 micrograms/kg/injection, schedule: Q04DX003 (ip), vehicle: saline + alcohol 108 % of control | dose: 600.0 micrograms/kg/injection, schedule: Q04DX003 (ip), vehicle: saline + alcohol 119 % of control
